{
  "source": "paper PMC11345841",
  "about": "“Exploring 2-Sulfonylpyrimidine Warheads as Acrylamide Surrogates for Targeted Covalent Inhibition: A BTK Story” (Journal of Medicinal Chemistry, 2024)",
  "assay_in_all_cases": "KINOMEscan ScanTK",
  "type_in_all_cases": "binding",
  "key": {"[1]": {"molecular_target": "T1, ABL1(T315I)-phosphorylated (Homo sapiens, UniProt P00519, T315I)", "T1 construct": "purchased Eurofins DiscoverX KINOMEscan (scanTK)"}, "[2]": {"molecular_target": "T2, BLK (Homo sapiens, UniProt P51451)", "T2 construct": "purchased Eurofins DiscoverX KINOMEscan (scanTK)", "conditions": "BLK"}, "[3]": {"molecular_target": "T3, BMX (Homo sapiens, UniProt P51813)", "T3 construct": "purchased Eurofins DiscoverX KINOMEscan (scanTK)", "T3 sequence (P51813 1-675)": "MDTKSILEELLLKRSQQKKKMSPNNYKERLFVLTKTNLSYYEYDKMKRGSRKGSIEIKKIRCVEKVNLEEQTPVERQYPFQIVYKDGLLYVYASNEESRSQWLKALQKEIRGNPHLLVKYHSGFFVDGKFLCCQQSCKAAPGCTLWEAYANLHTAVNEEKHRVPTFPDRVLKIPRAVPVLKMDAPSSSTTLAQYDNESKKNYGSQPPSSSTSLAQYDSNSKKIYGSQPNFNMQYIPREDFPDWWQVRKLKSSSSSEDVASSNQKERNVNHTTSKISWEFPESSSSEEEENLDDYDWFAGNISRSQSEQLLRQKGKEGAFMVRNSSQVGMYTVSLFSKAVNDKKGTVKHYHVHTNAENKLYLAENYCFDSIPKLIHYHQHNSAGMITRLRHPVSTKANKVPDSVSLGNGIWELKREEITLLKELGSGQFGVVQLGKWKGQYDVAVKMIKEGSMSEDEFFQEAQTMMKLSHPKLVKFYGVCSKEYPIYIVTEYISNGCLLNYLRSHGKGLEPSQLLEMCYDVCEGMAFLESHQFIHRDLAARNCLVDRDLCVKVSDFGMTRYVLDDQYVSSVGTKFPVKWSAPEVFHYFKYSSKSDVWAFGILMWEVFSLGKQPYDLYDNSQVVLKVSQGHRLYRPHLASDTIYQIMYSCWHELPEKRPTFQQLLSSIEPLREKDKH"}, "[4]": {"molecular_target": "T4, CSF1R-autoinhibited (Homo sapiens, UniProt P07333)", "T4 construct": "purchased Eurofins DiscoverX KINOMEscan (scanTK)", "T4 sequence (P07333 539-972 limits assumed)": "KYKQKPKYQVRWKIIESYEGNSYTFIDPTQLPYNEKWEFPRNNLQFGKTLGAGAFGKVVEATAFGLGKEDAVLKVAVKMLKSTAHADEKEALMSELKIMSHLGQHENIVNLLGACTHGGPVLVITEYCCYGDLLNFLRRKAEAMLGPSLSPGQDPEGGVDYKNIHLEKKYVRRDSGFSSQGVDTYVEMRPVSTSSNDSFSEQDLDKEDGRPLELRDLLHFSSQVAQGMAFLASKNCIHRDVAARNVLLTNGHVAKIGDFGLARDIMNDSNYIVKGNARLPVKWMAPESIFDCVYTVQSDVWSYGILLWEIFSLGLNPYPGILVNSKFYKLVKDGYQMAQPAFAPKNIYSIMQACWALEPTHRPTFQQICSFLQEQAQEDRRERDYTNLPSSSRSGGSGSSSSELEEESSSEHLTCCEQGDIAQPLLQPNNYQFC"}, "[5]": {"molecular_target": "T5, CSK (Homo sapiens, UniProt P41240)", "T5 construct": "purchased Eurofins DiscoverX KINOMEscan (scanTK)"}, "[6]": {"molecular_target": "T6, EGFR(L861Q) (Homo sapiens, UniProt P00533, L861Q)", "T6 construct": "purchased Eurofins DiscoverX KINOMEscan (scanTK)", "T6 sequence (P00533 25-1210 L861Q)": "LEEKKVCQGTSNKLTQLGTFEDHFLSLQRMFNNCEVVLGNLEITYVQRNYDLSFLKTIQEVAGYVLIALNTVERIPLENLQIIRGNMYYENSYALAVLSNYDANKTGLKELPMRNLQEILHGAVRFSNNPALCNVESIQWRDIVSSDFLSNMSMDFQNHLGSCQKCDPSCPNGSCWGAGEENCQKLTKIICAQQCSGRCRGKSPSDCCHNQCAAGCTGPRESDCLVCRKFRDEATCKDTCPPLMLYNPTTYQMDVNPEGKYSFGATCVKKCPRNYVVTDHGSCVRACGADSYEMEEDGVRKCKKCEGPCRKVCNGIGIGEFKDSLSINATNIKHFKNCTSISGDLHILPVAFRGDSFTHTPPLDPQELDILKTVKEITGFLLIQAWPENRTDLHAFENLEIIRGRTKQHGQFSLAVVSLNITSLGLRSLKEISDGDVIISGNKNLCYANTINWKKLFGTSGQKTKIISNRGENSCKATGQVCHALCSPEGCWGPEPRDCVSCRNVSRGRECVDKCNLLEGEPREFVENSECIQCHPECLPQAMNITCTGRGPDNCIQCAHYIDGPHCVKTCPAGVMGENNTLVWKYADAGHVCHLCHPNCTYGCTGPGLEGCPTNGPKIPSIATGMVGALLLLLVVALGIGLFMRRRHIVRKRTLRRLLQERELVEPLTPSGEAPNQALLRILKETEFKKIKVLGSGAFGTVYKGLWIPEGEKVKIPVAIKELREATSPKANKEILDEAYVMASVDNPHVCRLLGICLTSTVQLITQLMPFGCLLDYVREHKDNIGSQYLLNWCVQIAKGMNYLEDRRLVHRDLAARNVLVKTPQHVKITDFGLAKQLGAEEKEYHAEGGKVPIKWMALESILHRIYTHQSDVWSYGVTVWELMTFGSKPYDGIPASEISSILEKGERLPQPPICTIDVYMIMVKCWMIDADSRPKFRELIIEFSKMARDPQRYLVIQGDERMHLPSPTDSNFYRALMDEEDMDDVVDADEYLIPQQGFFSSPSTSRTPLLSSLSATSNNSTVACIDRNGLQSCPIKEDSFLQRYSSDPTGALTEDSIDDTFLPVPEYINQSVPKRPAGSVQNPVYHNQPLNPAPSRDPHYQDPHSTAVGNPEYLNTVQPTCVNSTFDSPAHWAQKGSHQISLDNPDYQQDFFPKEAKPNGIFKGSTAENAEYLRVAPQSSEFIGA"}, "[7]": {"molecular_target": "T7, ERBB2 (Homo sapiens, UniProt P04626)", "T7 construct": "purchased Eurofins DiscoverX KINOMEscan (scanTK)", "conditions": "ERBB2"}, "[8]": {"molecular_target": "T8, ERBB3 (Homo sapiens, UniProt P21860)", "T8 construct": "purchased Eurofins DiscoverX KINOMEscan (scanTK)", "T8 sequence (P21860 20-1342)": "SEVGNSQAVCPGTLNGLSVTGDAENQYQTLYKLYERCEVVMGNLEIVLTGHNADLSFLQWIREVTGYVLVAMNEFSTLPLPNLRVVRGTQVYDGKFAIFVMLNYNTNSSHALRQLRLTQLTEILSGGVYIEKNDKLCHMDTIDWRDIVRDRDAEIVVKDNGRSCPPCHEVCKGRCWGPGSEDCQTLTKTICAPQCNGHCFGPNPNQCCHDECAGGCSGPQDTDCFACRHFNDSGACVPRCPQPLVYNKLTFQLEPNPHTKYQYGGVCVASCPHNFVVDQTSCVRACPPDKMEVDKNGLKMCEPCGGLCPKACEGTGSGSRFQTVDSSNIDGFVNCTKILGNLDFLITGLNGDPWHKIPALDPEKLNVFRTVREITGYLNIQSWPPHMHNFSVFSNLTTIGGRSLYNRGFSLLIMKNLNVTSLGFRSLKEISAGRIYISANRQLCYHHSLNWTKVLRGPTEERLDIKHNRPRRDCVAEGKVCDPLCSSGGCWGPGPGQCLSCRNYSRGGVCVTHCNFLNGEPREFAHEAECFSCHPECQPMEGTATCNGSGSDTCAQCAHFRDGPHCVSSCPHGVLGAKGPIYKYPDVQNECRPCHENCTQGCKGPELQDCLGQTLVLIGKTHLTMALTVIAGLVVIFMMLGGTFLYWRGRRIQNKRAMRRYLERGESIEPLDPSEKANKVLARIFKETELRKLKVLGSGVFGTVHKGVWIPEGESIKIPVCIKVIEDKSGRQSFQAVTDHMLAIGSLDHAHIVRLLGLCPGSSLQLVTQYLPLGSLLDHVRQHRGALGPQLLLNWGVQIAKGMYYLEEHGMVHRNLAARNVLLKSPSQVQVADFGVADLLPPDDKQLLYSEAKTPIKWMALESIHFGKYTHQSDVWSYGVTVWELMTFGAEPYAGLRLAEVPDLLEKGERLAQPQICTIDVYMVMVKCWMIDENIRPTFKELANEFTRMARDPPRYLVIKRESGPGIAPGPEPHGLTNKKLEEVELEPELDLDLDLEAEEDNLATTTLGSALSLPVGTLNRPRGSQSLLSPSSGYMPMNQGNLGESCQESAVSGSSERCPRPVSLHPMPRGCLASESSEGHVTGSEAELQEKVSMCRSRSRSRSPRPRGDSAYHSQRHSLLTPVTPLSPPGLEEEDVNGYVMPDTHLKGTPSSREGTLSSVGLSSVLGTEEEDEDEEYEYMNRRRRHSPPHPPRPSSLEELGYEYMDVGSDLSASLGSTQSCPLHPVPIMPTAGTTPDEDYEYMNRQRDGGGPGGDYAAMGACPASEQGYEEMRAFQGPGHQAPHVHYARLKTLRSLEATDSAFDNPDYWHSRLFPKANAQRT", "conditions": "ERBB3"}, "[9]": {"molecular_target": "T9, INSRR (Homo sapiens, UniProt P14616)", "T9 construct": "purchased Eurofins DiscoverX KINOMEscan (scanTK)", "T9 sequence (P14616 27-1297)": "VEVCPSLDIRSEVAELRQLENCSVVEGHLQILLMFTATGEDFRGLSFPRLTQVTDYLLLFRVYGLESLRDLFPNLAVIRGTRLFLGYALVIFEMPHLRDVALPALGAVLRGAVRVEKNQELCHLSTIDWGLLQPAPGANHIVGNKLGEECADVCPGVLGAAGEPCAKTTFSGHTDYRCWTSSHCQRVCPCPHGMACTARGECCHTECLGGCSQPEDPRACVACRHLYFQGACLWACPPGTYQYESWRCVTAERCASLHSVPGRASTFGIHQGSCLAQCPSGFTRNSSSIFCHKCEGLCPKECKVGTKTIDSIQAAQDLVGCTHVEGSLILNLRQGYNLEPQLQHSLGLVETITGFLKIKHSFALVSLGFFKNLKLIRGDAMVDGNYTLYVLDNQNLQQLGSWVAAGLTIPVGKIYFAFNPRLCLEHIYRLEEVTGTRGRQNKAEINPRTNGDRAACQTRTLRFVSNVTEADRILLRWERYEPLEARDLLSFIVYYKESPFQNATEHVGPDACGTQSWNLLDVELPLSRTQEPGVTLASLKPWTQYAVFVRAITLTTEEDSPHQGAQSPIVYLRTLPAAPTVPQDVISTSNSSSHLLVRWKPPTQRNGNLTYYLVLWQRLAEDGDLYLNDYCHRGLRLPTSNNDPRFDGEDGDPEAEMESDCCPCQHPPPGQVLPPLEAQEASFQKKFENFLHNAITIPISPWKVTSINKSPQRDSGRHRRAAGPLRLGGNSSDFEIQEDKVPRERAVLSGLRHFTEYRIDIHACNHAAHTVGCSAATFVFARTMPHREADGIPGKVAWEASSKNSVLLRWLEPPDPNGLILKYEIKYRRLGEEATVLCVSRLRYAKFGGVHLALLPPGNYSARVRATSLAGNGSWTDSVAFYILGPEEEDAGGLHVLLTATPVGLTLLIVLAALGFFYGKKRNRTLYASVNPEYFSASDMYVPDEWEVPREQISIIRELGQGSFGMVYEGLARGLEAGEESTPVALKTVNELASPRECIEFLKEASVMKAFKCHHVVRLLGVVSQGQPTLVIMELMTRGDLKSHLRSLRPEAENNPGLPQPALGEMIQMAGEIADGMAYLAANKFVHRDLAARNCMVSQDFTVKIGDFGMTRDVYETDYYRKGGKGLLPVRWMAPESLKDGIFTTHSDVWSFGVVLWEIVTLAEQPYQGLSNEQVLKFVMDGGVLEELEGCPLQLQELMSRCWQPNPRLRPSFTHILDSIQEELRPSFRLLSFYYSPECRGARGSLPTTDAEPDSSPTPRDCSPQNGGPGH"}, "[10]": {"molecular_target": "T10, JAK1(JH1domain-catalytic) (Homo sapiens, UniProt P23458)", "T10 construct": "JAK1(JH1domain-catalytic); purchased Eurofins DiscoverX KINOMEscan (scanTK)", "T10 sequence (P23458 875-1154 limits assumed)": "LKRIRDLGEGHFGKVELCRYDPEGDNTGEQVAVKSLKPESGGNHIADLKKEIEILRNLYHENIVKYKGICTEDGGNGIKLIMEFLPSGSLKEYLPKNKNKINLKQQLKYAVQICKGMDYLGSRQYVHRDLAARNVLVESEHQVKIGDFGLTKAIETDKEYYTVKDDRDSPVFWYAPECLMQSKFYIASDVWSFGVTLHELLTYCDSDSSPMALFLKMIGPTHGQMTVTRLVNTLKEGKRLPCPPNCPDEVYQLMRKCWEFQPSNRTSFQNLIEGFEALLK"}, "[11]": {"molecular_target": "T11, TNK2 (Homo sapiens, UniProt Q07912)", "T11 construct": "purchased Eurofins DiscoverX KINOMEscan (scanTK)", "T11 sequence (Q07912 whole entry)": "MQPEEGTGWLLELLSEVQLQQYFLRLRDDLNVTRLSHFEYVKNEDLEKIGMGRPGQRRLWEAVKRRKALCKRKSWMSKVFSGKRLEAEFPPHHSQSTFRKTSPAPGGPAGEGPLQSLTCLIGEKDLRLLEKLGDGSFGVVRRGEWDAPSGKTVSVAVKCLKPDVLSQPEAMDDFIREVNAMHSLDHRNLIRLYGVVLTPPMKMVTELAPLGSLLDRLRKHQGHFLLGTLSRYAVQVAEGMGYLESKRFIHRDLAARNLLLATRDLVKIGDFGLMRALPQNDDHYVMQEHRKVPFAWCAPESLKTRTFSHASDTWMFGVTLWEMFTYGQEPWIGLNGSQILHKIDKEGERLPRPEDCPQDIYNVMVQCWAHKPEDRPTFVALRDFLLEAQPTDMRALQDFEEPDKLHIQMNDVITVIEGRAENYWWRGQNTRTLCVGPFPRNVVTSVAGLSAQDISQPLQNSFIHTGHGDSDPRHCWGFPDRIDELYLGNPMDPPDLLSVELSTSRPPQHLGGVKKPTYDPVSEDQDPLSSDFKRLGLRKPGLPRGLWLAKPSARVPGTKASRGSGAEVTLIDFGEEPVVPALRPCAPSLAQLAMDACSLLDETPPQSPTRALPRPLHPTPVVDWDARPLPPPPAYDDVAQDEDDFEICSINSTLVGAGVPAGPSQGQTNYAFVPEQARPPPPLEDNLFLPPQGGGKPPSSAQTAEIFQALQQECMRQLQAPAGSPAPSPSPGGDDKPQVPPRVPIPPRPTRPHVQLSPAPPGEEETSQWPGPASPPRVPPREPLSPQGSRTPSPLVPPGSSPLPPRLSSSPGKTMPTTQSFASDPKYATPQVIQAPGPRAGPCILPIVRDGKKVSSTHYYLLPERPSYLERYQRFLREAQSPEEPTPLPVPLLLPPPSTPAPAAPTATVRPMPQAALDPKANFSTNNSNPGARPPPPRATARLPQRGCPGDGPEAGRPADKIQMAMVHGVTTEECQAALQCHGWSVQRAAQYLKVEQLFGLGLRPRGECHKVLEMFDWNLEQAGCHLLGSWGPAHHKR"}},
  "note": "Read-outs that look alike come from different tables or passages of the source.",
  "data": [
    {"smiles": "CNC(=O)c1cnc(S(C)(=O)=O)nc1N1CCCC(n2nc(-c3ccc(Oc4ccccc4)cc3)c3c(N)ncnc32)C1", "note": "(centres unmarked) [Compound 8d, 4-(3-(4-Amino-3-(4-phenoxyphenyl)-1H-pyrazolo[3,4-d]pyrimidin-1-yl)piperidin-1-yl)-N-methyl-2-(methylsulfonyl)pyrimidine-5-carboxamide]", "values": [
      {"measurement": "difference in %Control versus compound Ib at 1 µM", "setting": "[1]; @1000nM", "value": 6, "unit": "%"},
      {"measurement": "remaining binding at 1 µM", "setting": "[1]; @1000nM, read-out: %Control", "value": 85, "unit": "%"},
      {"measurement": "remaining binding at 1 µM", "setting": "[1]; read-out: %Control @1000nM", "value": 85, "unit": "%"},
      {"measurement": "difference in %Control vs reference Ib at 1 µM", "setting": "[2]; @1000nM, read-out: % difference (compound - Ib %Control)", "value": -0.05, "unit": "%"},
      {"measurement": "remaining binding at 1 µM", "setting": "[2]; @1000nM, read-out: %Control", "value": 0, "unit": "%"},
      {"measurement": "remaining binding at 1 µM", "setting": "[2]; read-out: %Control @1000nM", "value": 0, "unit": "%"},
      {"measurement": "difference in %Control versus compound Ib at 1 µM", "setting": "[3]; @1000nM", "value": 20, "unit": "%"},
      {"measurement": "remaining binding at 1 µM", "setting": "[3]; @1000nM, read-out: %Control", "value": 61, "unit": "%"},
      {"measurement": "remaining binding at 1 µM", "setting": "[3]; read-out: %Control @1000nM", "value": 61, "unit": "%"},
      {"measurement": "difference in %Control versus compound Ib at 1 µM", "setting": "[4]; @1000nM", "value": 9, "unit": "%"},
      {"measurement": "remaining binding at 1 µM", "setting": "[4]; @1000nM, read-out: %Control", "value": 86, "unit": "%"},
      {"measurement": "remaining binding at 1 µM", "setting": "[4]; read-out: %Control @1000nM", "value": 86, "unit": "%"},
      {"measurement": "difference in %Control from reference compound Ib at 1 µM", "setting": "[5]; @1000nM", "value": 3.6, "unit": "%"},
      {"measurement": "remaining binding at 1 µM", "setting": "[5]; @1000nM, read-out: %Control", "value": 8.1, "unit": "%"},
      {"measurement": "remaining binding at 1 µM", "setting": "[5]; read-out: %Control @1000nM", "value": 8.1, "unit": "%"},
      {"measurement": "difference in % of control versus compound Ib at 1 µM", "setting": "[6]; @1000nM", "value": 28.2, "unit": "%"},
      {"measurement": "remaining binding at 1 µM", "setting": "[6]; @1000nM, read-out: %Control", "value": 29, "unit": "%"},
      {"measurement": "remaining binding at 1 µM", "setting": "[6]; read-out: %Control @1000nM", "value": 29, "unit": "%"},
      {"measurement": "difference in %Control versus compound Ib at 1 µM", "setting": "[7]; @1000nM", "value": 5.5, "unit": "%"},
      {"measurement": "remaining binding at 1 µM", "setting": "[7]; @1000nM, read-out: %Control", "value": 5.5, "unit": "%"},
      {"measurement": "remaining binding at 1 µM", "setting": "[7]; read-out: %Control @1000nM", "value": 5.5, "unit": "%"},
      {"measurement": "% of control difference from compound Ib at 1 µM", "setting": "[8]; @1000nM", "value": 8.9, "unit": "%"},
      {"measurement": "remaining binding at 1 µM", "setting": "[8]; @1000nM, read-out: %Control", "value": 8.9, "unit": "%"},
      {"measurement": "remaining binding at 1 µM", "setting": "[8]; read-out: %Control @1000nM", "value": 8.9, "unit": "%"},
      {"measurement": "difference in %Control versus compound Ib at 1 µM", "setting": "[9]; @1000nM", "value": -8, "unit": "%"},
      {"measurement": "remaining binding at 1 µM", "setting": "[9]; @1000nM, read-out: %Control", "value": 88, "unit": "%"},
      {"measurement": "remaining binding at 1 µM", "setting": "[9]; read-out: %Control @1000nM", "value": 88, "unit": "%"},
      {"measurement": "difference in %Control versus compound Ib at 1 µM", "setting": "[10]; @1000nM", "value": 6, "unit": "%"},
      {"measurement": "remaining binding at 1 µM", "setting": "[10]; @1000nM, read-out: %Control", "value": 100, "unit": "%"},
      {"measurement": "remaining binding at 1 µM", "setting": "[10]; read-out: %Control @1000nM", "value": 100, "unit": "%"},
      {"measurement": "remaining binding at 1 µM", "setting": "[11]; @1000nM, read-out: %Control", "value": 100, "unit": "%"},
      {"measurement": "remaining binding at 1 µM", "setting": "[11]; read-out: %Control @1000nM", "value": 100, "unit": "%"}
    ]}
  ]
}
